Data: ChEMBL document CHEMBL5442219

How the values were obtained:
Details in all cases: Compound concentration 10 µM
[1] = target: 5-hydroxytryptamine receptor 1B (Homo sapiens) (UniProt P28222)
Description: PDSP Primary Binding target: HTR1B - Compounds are tested at 10 uM concentration, plate are incubated at room temperature in the dark for 90 minutes. Reaction are stopped by vacuum filtration onto 0.3% polyethyleneimine soaked filter mats using Filtermate harvester. Scintilation cocktail is then melted onto microwave-dried filters on a hot plate and the radio activity is counted in Microbia counter.

[2] = target: T1, Alpha-2A adrenergic receptor (Homo sapiens) (UniProt P08913)
T1 sequence (whole entry): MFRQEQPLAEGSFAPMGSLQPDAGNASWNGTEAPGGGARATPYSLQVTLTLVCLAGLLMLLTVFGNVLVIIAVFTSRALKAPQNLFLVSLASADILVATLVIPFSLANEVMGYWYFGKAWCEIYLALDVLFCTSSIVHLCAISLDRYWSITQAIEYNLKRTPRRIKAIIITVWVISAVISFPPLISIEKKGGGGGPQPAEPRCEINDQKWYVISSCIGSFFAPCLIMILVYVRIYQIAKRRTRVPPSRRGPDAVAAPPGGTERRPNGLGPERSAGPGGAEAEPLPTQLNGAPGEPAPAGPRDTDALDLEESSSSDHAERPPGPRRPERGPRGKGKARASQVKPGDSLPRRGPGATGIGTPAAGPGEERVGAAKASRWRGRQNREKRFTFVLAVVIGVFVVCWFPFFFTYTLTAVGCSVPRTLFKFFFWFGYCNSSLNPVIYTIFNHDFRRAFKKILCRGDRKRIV
Description: PDSP Primary Binding target: ADRA2A - Compounds are tested at 10 uM concentration, plate are incubated at room temperature in the dark for 90 minutes. Reaction are stopped by vacuum filtration onto 0.3% polyethyleneimine soaked filter mats using Filtermate harvester. Scintilation cocktail is then melted onto microwave-dried filters on a hot plate and the radio activity is counted in Microbia counter.

[3] = target: D(2) dopamine receptor (Homo sapiens) (UniProt P14416)
Description: PDSP Primary Binding target: DRD2 - Compounds are tested at 10 uM concentration, plate are incubated at room temperature in the dark for 90 minutes. Reaction are stopped by vacuum filtration onto 0.3% polyethyleneimine soaked filter mats using Filtermate harvester. Scintilation cocktail is then melted onto microwave-dried filters on a hot plate and the radio activity is counted in Microbia counter.

[4] = target: 5-hydroxytryptamine receptor 1E (Homo sapiens) (UniProt P28566)
Description: PDSP Primary Binding target: HTR1E - Compounds are tested at 10 uM concentration, plate are incubated at room temperature in the dark for 90 minutes. Reaction are stopped by vacuum filtration onto 0.3% polyethyleneimine soaked filter mats using Filtermate harvester. Scintilation cocktail is then melted onto microwave-dried filters on a hot plate and the radio activity is counted in Microbia counter.

[5] = target: Histamine H3 receptor (Homo sapiens) (UniProt Q9Y5N1)
Description: PDSP Primary Binding target: HRH3 - Compounds are tested at 10 uM concentration, plate are incubated at room temperature in the dark for 90 minutes. Reaction are stopped by vacuum filtration onto 0.3% polyethyleneimine soaked filter mats using Filtermate harvester. Scintilation cocktail is then melted onto microwave-dried filters on a hot plate and the radio activity is counted in Microbia counter.

[6] = target: T2, Alpha-1D adrenergic receptor (Homo sapiens) (UniProt P25100)
T2 sequence (whole entry): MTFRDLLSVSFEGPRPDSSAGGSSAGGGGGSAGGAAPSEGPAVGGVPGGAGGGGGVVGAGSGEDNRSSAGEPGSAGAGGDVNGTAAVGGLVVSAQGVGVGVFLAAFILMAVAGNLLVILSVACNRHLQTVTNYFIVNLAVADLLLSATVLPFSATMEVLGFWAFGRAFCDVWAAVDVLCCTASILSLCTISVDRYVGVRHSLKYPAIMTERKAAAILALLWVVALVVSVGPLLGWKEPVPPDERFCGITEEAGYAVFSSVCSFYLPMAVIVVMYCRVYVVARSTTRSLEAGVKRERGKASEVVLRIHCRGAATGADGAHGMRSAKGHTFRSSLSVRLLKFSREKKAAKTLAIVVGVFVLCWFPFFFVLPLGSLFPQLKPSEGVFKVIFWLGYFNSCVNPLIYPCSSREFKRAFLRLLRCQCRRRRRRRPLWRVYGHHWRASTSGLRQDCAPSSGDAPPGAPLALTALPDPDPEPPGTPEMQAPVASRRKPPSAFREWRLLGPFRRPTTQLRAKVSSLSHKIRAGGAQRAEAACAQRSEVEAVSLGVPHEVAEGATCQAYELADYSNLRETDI
Description: PDSP Primary Binding target: ADRA1D - Compounds are tested at 10 uM concentration, plate are incubated at room temperature in the dark for 90 minutes. Reaction are stopped by vacuum filtration onto 0.3% polyethyleneimine soaked filter mats using Filtermate harvester. Scintilation cocktail is then melted onto microwave-dried filters on a hot plate and the radio activity is counted in Microbia counter.

[7] = target: T3, Muscarinic acetylcholine receptor M5 (Homo sapiens) (UniProt P08912)
T3 sequence (whole entry): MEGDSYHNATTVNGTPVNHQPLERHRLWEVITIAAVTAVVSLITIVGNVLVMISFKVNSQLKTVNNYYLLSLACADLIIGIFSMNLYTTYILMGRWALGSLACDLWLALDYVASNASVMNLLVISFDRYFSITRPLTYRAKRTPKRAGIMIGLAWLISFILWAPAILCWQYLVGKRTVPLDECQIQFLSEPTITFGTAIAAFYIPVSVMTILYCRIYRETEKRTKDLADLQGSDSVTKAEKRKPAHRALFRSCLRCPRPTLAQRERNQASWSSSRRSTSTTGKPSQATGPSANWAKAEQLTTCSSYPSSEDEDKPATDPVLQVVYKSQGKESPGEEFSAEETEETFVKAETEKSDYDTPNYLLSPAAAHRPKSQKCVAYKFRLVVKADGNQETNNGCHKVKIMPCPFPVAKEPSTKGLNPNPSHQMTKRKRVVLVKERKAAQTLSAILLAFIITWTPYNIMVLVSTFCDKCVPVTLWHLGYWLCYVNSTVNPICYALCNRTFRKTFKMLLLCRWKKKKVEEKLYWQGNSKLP
Description: PDSP Primary Binding target: CHRM5 - Compounds are tested at 10 uM concentration, plate are incubated at room temperature in the dark for 90 minutes. Reaction are stopped by vacuum filtration onto 0.3% polyethyleneimine soaked filter mats using Filtermate harvester. Scintilation cocktail is then melted onto microwave-dried filters on a hot plate and the radio activity is counted in Microbia counter.

[8] = target: T4, Alpha-1A adrenergic receptor (Homo sapiens) (UniProt P35348)
T4 sequence (whole entry): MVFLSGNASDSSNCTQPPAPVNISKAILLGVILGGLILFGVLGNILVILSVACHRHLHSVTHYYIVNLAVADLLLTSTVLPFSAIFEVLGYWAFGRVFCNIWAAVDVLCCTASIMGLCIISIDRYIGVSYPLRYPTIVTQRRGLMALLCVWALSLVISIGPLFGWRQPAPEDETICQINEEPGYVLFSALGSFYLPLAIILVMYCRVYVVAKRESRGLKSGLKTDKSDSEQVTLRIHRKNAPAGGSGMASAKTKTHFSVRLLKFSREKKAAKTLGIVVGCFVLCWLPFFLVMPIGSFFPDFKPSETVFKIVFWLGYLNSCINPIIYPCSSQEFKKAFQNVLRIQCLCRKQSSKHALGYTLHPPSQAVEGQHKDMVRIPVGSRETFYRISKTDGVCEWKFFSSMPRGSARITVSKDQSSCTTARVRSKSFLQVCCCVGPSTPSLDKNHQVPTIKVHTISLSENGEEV
Description: PDSP Primary Binding target: ADRA1A - Compounds are tested at 10 uM concentration, plate are incubated at room temperature in the dark for 90 minutes. Reaction are stopped by vacuum filtration onto 0.3% polyethyleneimine soaked filter mats using Filtermate harvester. Scintilation cocktail is then melted onto microwave-dried filters on a hot plate and the radio activity is counted in Microbia counter.

[9] = target: T5, D(4) dopamine receptor (Homo sapiens) (UniProt P21917)
T5 sequence (whole entry): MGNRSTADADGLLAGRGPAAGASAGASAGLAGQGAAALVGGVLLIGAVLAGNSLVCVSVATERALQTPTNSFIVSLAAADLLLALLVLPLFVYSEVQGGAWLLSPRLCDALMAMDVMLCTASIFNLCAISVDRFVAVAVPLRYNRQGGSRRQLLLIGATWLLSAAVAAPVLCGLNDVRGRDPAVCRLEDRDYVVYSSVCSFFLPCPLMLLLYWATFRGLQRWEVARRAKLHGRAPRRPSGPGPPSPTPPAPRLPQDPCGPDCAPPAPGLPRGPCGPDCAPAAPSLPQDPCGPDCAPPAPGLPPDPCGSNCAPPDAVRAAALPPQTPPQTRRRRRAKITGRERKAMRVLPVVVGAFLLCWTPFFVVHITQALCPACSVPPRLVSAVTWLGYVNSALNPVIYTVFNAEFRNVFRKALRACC
Description: PDSP Primary Binding target: DRD4 - Compounds are tested at 10 uM concentration, plate are incubated at room temperature in the dark for 90 minutes. Reaction are stopped by vacuum filtration onto 0.3% polyethyleneimine soaked filter mats using Filtermate harvester. Scintilation cocktail is then melted onto microwave-dried filters on a hot plate and the radio activity is counted in Microbia counter.

[10] = target: Translocator protein (Homo sapiens) (UniProt P30536)
Description: PDSP Primary Binding target: TSPO - Compounds are tested at 10 uM concentration, plate are incubated at room temperature in the dark for 90 minutes. Reaction are stopped by vacuum filtration onto 0.3% polyethyleneimine soaked filter mats using Filtermate harvester. Scintilation cocktail is then melted onto microwave-dried filters on a hot plate and the radio activity is counted in Microbia counter.

[11] = target: Histamine H1 receptor (Homo sapiens) (UniProt P35367)
Description: PDSP Primary Binding target: HRH1 - Compounds are tested at 10 uM concentration, plate are incubated at room temperature in the dark for 90 minutes. Reaction are stopped by vacuum filtration onto 0.3% polyethyleneimine soaked filter mats using Filtermate harvester. Scintilation cocktail is then melted onto microwave-dried filters on a hot plate and the radio activity is counted in Microbia counter.

[12] = target: Muscarinic acetylcholine receptor M3 (Homo sapiens) (UniProt P20309)
Muscarinic acetylcholine receptor M3 (Homo sapiens), sequence (P20309 whole entry, looked up): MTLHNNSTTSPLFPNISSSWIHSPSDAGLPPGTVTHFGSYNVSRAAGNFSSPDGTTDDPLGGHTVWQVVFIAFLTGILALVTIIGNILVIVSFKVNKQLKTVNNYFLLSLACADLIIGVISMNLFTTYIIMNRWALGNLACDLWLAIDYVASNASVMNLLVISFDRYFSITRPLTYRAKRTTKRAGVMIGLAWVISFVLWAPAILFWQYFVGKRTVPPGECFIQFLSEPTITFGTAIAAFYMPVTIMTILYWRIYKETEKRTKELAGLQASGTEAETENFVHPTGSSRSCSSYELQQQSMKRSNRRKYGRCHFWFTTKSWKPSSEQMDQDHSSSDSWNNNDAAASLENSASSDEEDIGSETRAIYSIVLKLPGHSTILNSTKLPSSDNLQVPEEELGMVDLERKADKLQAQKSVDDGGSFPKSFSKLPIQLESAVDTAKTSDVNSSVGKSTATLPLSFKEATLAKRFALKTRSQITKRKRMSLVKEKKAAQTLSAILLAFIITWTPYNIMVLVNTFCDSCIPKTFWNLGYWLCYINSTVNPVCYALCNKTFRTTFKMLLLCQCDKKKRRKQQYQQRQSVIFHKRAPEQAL
Description: PDSP Primary Binding target: CHRM3 - Compounds are tested at 10 uM concentration, plate are incubated at room temperature in the dark for 90 minutes. Reaction are stopped by vacuum filtration onto 0.3% polyethyleneimine soaked filter mats using Filtermate harvester. Scintilation cocktail is then melted onto microwave-dried filters on a hot plate and the radio activity is counted in Microbia counter.

D(2) dopamine receptor (Homo sapiens), sequence (P14416 whole entry): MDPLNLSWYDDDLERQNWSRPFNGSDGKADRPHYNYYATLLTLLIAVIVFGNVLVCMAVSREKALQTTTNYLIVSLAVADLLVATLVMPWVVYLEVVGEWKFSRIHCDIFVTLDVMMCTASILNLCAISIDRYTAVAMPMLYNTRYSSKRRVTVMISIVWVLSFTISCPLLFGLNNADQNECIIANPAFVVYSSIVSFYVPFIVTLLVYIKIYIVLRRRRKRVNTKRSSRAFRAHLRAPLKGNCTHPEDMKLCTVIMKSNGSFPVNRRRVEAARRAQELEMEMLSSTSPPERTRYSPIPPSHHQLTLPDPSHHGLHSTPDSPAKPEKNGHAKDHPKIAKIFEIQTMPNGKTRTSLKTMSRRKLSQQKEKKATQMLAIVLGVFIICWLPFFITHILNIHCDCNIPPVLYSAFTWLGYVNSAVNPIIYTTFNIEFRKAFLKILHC
Translocator protein (Homo sapiens), sequence (P30536 whole entry): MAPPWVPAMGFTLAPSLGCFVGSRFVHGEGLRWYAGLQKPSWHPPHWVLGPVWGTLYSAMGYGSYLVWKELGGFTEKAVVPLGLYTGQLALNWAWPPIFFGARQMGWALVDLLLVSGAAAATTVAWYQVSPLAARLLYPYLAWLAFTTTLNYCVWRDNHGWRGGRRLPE
Histamine H3 receptor (Homo sapiens), sequence (Q9Y5N1 whole entry): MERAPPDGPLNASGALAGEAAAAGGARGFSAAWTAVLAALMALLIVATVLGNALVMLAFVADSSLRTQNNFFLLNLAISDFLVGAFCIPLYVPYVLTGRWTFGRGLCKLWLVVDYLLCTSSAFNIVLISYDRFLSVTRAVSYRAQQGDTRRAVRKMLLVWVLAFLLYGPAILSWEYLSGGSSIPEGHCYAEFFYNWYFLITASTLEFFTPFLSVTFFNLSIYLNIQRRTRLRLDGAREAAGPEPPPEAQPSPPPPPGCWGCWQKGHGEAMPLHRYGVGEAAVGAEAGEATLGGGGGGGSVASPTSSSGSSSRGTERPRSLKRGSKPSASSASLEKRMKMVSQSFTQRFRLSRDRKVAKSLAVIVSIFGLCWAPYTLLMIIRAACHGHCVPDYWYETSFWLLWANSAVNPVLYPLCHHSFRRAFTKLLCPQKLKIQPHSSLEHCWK
5-hydroxytryptamine receptor 1E (Homo sapiens), sequence (P28566 whole entry): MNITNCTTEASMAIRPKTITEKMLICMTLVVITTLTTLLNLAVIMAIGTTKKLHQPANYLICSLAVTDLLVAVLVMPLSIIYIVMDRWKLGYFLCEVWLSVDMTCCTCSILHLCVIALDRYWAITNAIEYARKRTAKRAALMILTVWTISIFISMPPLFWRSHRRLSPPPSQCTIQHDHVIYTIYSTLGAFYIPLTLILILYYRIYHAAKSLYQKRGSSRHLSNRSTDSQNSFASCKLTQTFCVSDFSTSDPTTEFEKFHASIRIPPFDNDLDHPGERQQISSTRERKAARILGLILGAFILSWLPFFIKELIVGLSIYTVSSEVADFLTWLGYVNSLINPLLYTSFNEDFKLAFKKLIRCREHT
5-hydroxytryptamine receptor 1B (Homo sapiens), sequence (P28222 whole entry): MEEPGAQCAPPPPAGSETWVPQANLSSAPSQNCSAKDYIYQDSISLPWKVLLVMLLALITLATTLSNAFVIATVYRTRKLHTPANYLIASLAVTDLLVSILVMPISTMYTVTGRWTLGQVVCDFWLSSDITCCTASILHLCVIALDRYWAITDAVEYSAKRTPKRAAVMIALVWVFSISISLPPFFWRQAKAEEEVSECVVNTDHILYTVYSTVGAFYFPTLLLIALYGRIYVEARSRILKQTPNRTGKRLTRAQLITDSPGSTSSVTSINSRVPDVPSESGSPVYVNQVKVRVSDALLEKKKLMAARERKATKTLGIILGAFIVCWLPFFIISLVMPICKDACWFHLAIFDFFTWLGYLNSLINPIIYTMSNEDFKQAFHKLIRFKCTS
Histamine H1 receptor (Homo sapiens), sequence (P35367 whole entry): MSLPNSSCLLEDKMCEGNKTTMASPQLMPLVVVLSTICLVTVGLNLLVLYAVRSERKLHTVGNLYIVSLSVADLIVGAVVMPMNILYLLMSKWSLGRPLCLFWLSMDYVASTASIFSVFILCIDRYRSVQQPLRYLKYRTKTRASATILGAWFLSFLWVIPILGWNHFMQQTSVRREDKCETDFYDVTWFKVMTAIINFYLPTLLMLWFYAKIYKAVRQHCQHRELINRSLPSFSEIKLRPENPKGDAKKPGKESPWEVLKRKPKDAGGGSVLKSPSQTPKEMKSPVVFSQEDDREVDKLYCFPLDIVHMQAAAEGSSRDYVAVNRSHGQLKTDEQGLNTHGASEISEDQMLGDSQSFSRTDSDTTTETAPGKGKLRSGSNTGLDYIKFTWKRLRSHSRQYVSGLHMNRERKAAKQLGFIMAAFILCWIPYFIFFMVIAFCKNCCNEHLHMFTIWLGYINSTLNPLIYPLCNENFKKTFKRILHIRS

Structure (SMILES): CC(C)NCC(O)COc1cccc2ccccc12 (stereo not drawn)
- inhibition [1]: 9.59%
- inhibition [2]: 16.4%
- inhibition [3]: 17.7%
- inhibition [4]: 3.24%
- inhibition [5]: 5.07%
- inhibition [6]: 12.7%
- inhibition [7]: 6.07%
- inhibition [8]: 14.6%
- inhibition [9]: 13.2%

Structure (SMILES): O=C(Nc1ccc(Cl)cc1)Nc1cccc(-c2cccc(N3CCCC3)n2)c1
- inhibition [10]: 34.9%
- inhibition [2]: 3.23%
- inhibition [3]: 8.25%
- inhibition [4]: 2.89%
- inhibition [6]: 0.2%
- inhibition [11]: -4.85%
- inhibition [7]: -5.29%
- inhibition [8]: 1.27%
- inhibition [9]: 5.64%

Structure (SMILES): O=C(Cc1ccccc1)Nc1nc2ccc(Cl)cc2c2nc(-c3ccco3)nn12
- inhibition [10]: 18.7%
- inhibition [2]: 3.62%
- inhibition [3]: 1.93%
- inhibition [4]: 7.51%
- inhibition [6]: -5.53%
- inhibition [11]: 29.1%
- inhibition [7]: -3.93%
- inhibition [8]: 10.4%
- inhibition [9]: 33.2%

Structure (SMILES): N#Cc1c(N)nc(SCC(N)=O)c(C#N)c1-c1ccc(OCC2CC2)cc1
- inhibition [10]: 39%
- inhibition [2]: -1.71%
- inhibition [5]: -3.51%
- inhibition [6]: 0.73%
- inhibition [11]: 22.6%
- inhibition [7]: 10.4%
- inhibition [8]: 16.2%
- inhibition [9]: 8.04%

Structure (SMILES): CCCCc1nc(Cl)c(CO)n1Cc1ccc(-c2ccccc2-c2nnn[nH]2)cc1
- inhibition [1]: -3.17%
- inhibition [10]: 5.8%
- inhibition [2]: 6.2%
- inhibition [3]: 23.9%
- inhibition [4]: 7.06%
- inhibition [5]: 31.4%
- inhibition [6]: 13.1%
- inhibition [7]: 0.95%
- inhibition [8]: -0.59%
- inhibition [9]: 37%

Structure (SMILES): CCCSc1nc(N[C@@H]2C[C@H]2c2ccc(F)c(F)c2)c2nnn([C@@H]3C[C@H](OCCO)[C@@H](O)[C@H]3O)c2n1
- inhibition [1]: 19.3%
- inhibition [10]: 46%
- inhibition [3]: 29%
- inhibition [4]: 3.9%
- inhibition [6]: 11.3%
- inhibition [11]: 16.1%
- inhibition [7]: 10.8%
- inhibition [8]: 11.7%
- inhibition [9]: 7.98%

Structure (SMILES): Cc1cc(NC(=O)Nc2ccc(N(C)C)cc2)c2cc(F)cc(F)c2n1
- inhibition [10]: 8.35%
- inhibition [3]: 52.2%
- inhibition [4]: -4.12%
- inhibition [5]: 28.6%
- inhibition [6]: 6.71%
- inhibition [11]: 6.41%
- inhibition [7]: 39.2%
- inhibition [8]: 3.42%
- inhibition [9]: 25.9%

Structure (SMILES): CC(C)C[C@H](NC(=O)N1CCCCCC1)C(=O)N[C@H](Cc1cn(C)c2ccccc12)C(=O)N[C@H](Cc1ccccn1)C(=O)O
- inhibition [1]: -2.58%
- inhibition [10]: 25.5%
- inhibition [2]: -6.57%
- inhibition [3]: 2.53%
- inhibition [11]: 5.31%
- inhibition [8]: 14.1%

Structure (SMILES): Cc1cc(C)cc(C(=O)N(C)[C@H](Cc2ccc(-c3ccccc3)cc2)C(=O)N[C@@H](Cc2c[nH]c3ccccc23)C(=O)O)c1
- inhibition [10]: 28.8%
- inhibition [12]: 0.07%
- inhibition [2]: -8.09%
- inhibition [6]: 7.51%
- inhibition [11]: 15.5%
- inhibition [8]: 22.3%
- inhibition [9]: 11.8%

Structure (SMILES): CN(C)C(=O)C(CCN1CCC(O)(c2ccc(Cl)cc2)CC1)(c1ccccc1)c1ccccc1
- inhibition [1]: 20.1%
- inhibition [10]: 50%
- inhibition [2]: 47.1%
- inhibition [3]: 16.2%
- inhibition [4]: 18.4%
- inhibition [5]: 10.4%
- inhibition [6]: 38%
- inhibition [7]: 2.95%
- inhibition [8]: 42.9%
- inhibition [9]: 54.2%

Structure (SMILES): Cc1c(OCc2cccc(-c3ccc(C(=O)O)cc3)c2)cc2c(c1C)C(=O)C(C1CCCC1)C2 (stereo not drawn)
- inhibition [1]: 4.33%
- inhibition [10]: 17.6%
- inhibition [12]: 34.5%
- inhibition [3]: -2.54%
- inhibition [4]: 6.04%
- inhibition [5]: 31.1%
- inhibition [6]: 60%
- inhibition [11]: -3.97%
- inhibition [8]: 48.4%
- inhibition [9]: 44%

Structure (SMILES): CCc1cc2c(c(CC)n1)CCC(=O)N2Cc1ccc(-c2ccccc2-c2nnn[nH]2)cc1
- inhibition [1]: 11.5%
- inhibition [10]: 45.9%
- inhibition [2]: -6.38%
- inhibition [3]: 37.9%
- inhibition [4]: -6.23%
- inhibition [11]: 8.58%
- inhibition [7]: -1.14%
- inhibition [8]: 18.5%
- inhibition [9]: 70%

Structure (SMILES): C/C(=N\NC(=O)[C@@H]1C(=O)NC[C@H]1c1ccccc1)c1cccc(Br)c1
- inhibition [1]: 3.07%
- inhibition [10]: 46.9%
- inhibition [3]: 7.24%
- inhibition [5]: 7.14%
- inhibition [6]: -1.53%
- inhibition [11]: 58.5%
- inhibition [8]: 4.55%
- inhibition [9]: 2.24%

Structure (SMILES): CC(C)(C)NC[C@H](O)COc1nsnc1N1CCOCC1
- inhibition [1]: 17.9%
- inhibition [10]: 0.37%
- inhibition [2]: 11.8%
- inhibition [3]: 6.14%
- inhibition [4]: 7.32%
- inhibition [5]: 10.1%
- inhibition [6]: 8.6%
- inhibition [7]: 2.12%
- inhibition [8]: 2.77%
- inhibition [9]: 15.6%

Structure (SMILES): COc1cc2c(CCNC(C)=O)c[nH]c2cc1Cl
- inhibition [1]: 25.2%
- inhibition [10]: 20.1%
- inhibition [2]: 13.4%
- inhibition [3]: -7.31%
- inhibition [4]: 16.3%
- inhibition [6]: 6.2%
- inhibition [11]: 3.86%
- inhibition [8]: 1.85%
- inhibition [9]: -6.09%

Structure (SMILES): Cc1cccc(NC(=O)N[C@@H]2N=C(c3ccccc3)c3ccccc3N(C)C2=O)c1
- inhibition [1]: 16.2%
- inhibition [10]: 27.5%
- inhibition [2]: 13.9%
- inhibition [3]: 14.2%
- inhibition [4]: 18.6%
- inhibition [5]: -5.59%
- inhibition [11]: 12.5%
- inhibition [8]: -7.27%
- inhibition [9]: 14.6%

Structure (SMILES): O=C(O)CC/C=C\C[C@@H]1CO[C@H](c2ccccc2Cl)O[C@@H]1c1ccccc1O
- inhibition [10]: 8.35%
- inhibition [12]: 6.61%
- inhibition [3]: 4.25%
- inhibition [4]: -6.67%
- inhibition [5]: 6.14%
- inhibition [11]: 33.4%
- inhibition [8]: -9.2%
